Here are results for 6 compounds from publication PMC2849157 (Bioorganic & medicinal chemistry letters, 2010).

The subject of series [1] is HIV. Briefly: anti-HIV activity, cellular assay. As to conditions: for antiviral activity: in words; for EC50: Human immunodeficiency virus 1, MT2, read-out: EC50, anti-HIV activity. In kind it is cell-based, human immunodeficiency virus 1 (HIV).
The subject of series [2] is HCV. Briefly: anti-HCV activity. In kind it is cell-based. As to conditions: Hepatitis C virus, read-out: EC50, anti-HCV activity.
The test system of series [3] is hepatitis B virus (HBV). Briefly: effect on replication of HBV. In kind it is cell-based.
Series [4] deals with HSV-2. Kind of series: effect on replication of HSV-2. In kind it is cell-based.
In series [5] the test system is herpes simplex virus-1 (HSV-1). Kind of series: effect on replication of HSV-1. Type of series: cell-based.
Series [6] deals with MT-2. Kind of series: cytotoxicity. In kind it is cell-based, human. As to conditions: MT-2 cellular assay.

For the compound `CCCCOc1c2cc(C(=O)Nc3cc(C(=O)O)cc(C(=O)OCc4ccccc4)c3)cc1Cc1cc(C(=O)Nc3cc(C(=O)O)cc(C(=O)OCc4ccccc4)c3)cc(c1OCCCC)Cc1cc(C(=O)Nc3cc(C(=O)O)cc(C(=O)OCc4ccccc4)c3)cc(c1OCCCC)Cc1cc(C(=O)Nc3cc(C(=O)O)cc(C(=O)OCc4ccccc4)c3)cc(c1OCCCC)C2` [Compound 1], the antiviral activity entry in series [1] is given as “little to no antiviral activity”.
Regarding `CCCCOc1c2cc(C(=O)Nc3cc(C(=O)O)cc(C(=O)O)c3)cc1Cc1cc(C(=O)Nc3cc(C(=O)O)cc(C(=O)O)c3)cc(c1OCCCC)Cc1cc(C(=O)Nc3cc(C(=O)O)cc(C(=O)O)c3)cc(c1OCCCC)Cc1cc(C(=O)Nc3cc(C(=O)O)cc(C(=O)O)c3)cc(c1OCCCC)C2` [Compound 2], the “potency against different laboratory HIV strains” value in series [1] (HIV-IIIB, NL-43, LaiM184V) was “equally potent”. The EC50 (in general, the concentration that produces a half-maximal response) in series [1] turned out to be 300 nM; in series [2], 1800 nM. In addition, in series [1] (MT-2, CEMx174, TZM-bl), the “antiviral activity in different cell lines” value is recorded as “antiviral activity was retained in all these cell lines”. For the same compound, the “effect on the replication of HBV” value in series [3] was “no effect”. The “effect on the replication of HSV-2” value in series [4] is reported as “no effect”. Moreover, in series [5], the “effect on the replication of HSV-1” value is reported as “no effect”.
Take `CCCCOc1c2cc(C(=O)Nc3cc(C(=O)O)cc(C(=O)NC4CCCCC4)c3)cc1Cc1cc(C(=O)Nc3cc(C(=O)O)cc(C(=O)NC4CCCCC4)c3)cc(c1OCCCC)Cc1cc(C(=O)Nc3cc(C(=O)O)cc(C(=O)NC4CCCCC4)c3)cc(c1OCCCC)Cc1cc(C(=O)Nc3cc(C(=O)O)cc(C(=O)NC4CCCCC4)c3)cc(c1OCCCC)C2` [Compound 3]: the antiviral activity entry in series [1] is given as “little to no antiviral activity”.
With `CCCCOc1c2cc(C(=O)NCCN)cc1Cc1cc(C(=O)NCCN)cc(c1OCCCC)Cc1cc(C(=O)NCCN)cc(c1OCCCC)Cc1cc(C(=O)NCCN)cc(c1OCCCC)C2` [Compound 7], the antiviral activity entry in series [1] was “lack of antiviral activity”.
For the compound `O=C(O)c1cc(NC(=O)c2cc3c(O)c(c2)Cc2cc(C(=O)Nc4cc(C(=O)O)cc(C(=O)O)c4)cc(c2O)Cc2cc(C(=O)Nc4cc(C(=O)O)cc(C(=O)O)c4)cc(c2O)Cc2cc(C(=O)Nc4cc(C(=O)O)cc(C(=O)O)c4)cc(c2O)C3)cc(C(=O)O)c1` [Compound 9], the half-maximal effective concentration (EC50) is 6700 nM in series [1] and more than 50000 nM in series [2].
With `O=C(O)c1cc(NC(=O)c2cc3c(OCc4ccccc4)c(c2)Cc2cc(C(=O)Nc4cc(C(=O)O)cc(C(=O)O)c4)cc(c2OCc2ccccc2)Cc2cc(C(=O)Nc4cc(C(=O)O)cc(C(=O)O)c4)cc(c2OCc2ccccc2)Cc2cc(C(=O)Nc4cc(C(=O)O)cc(C(=O)O)c4)cc(c2OCc2ccccc2)C3)cc(C(=O)O)c1` [Compound 11], the results for the concentration giving a half-maximal response (EC50) in series [1] and in series [2] were 300 nM and 1400 nM, respectively. Besides, the “ID50 (toxicity)” value in series [6] was determined as 18000 nM.
